Data published in PMC4914250, “Cancer therapeutic approach based on conformational stabilization of mutant p53 protein by small peptides” (Oncotarget, 2016).

How the values were obtained:
[1] = system: SK3; test: Crystal violet viability assay, SK3; format: cell-based, human; set-up: key: score 0- no effect-white; score 6- as or more effective than positive control- black; details: score 0-6 compared to positive control, 48 h
Source text: (§1) We also performed a similar analysis on ES2 ovarian cancer cells, which express endogenous mp53^S241F, compared to ES2 cells in which p53 was stably knocked out using CRISPR/Cas9 (ES2 p53KO Figure S1F), to control for specificity for mutp53 (Figure 2D). In ES2 cells, too, some of the peptides caused a significant reduction in cell numbers, more prominent in the mutp53 expressing cells than in their p53KO counterparts. […] Overall, we performed this analysis on several different mutp53-expressing human cancer cell lines, and the results are summarized in Table S3. Based on this comprehensive picture, we reduced the number of most promising candidate lead peptides to 30. These peptides were then synthesized with an 8 arginine C-terminal tail for enhanced delivery across cell membranes (pCAPs 130-160); for clarity, peptides are referred to by their original number, with an R for poly arginine (see Table S3).
(§2) Cells were cultured in 96 wells plates with 2500-4000 cells/well. Serial dilutions of different peptides were added and the plates incubated for additional 48 h at 37°C. Then medium was removed and cell viability was determined by staining the cells with crystal violet (0.05%) in methanol/PBS (1:5, v/v), for 10 min, followed by 3 washes with PBS. 10% acetic acid was added to each well for 10 min. OD was determined at 595 nm.

[2] = system: p53 target genes in ES2 cells; test: Induction of p53 target genes by qRT-PCR, ES2; format: cell-based, human; details: for PCR ES2: score 0-6 compared to positive control, induction of p53 target genes by qRT-PCR; for expression of the p53 target genes, ES2: peptide 5ug/ml, 18 hours, ES2 versus ES2 p53KO
Method: Since p53 works primarily as a transcription factor, we tested the ability of lead peptides to induce p53 target gene activation. To that end we used H1299-tsp53^V135A cells, which express temperature sensitive (ts) p53 and allow examination of WT and mutant p53 states in the same cellular background. In the representative experiment shown in Figure 3A, cells were exposed to the indicated peptides (5μg/ml) and then either transferred to 32°C or placed back at 37°C. Cells were harvested 18 hours later, and mRNA was extracted and subjected to qRT-PCR analysis. Expression levels of 3 representative p53 target genes, p21, PUMA and Mdm2, were examined. Values were normalized to non-treated cells at 37°C, and expression at 32°C, where the ts-p53 is in a WT conformation, served as positive control. […] A similar analysis was performed on ES2 ovarian cancer cells, expressing endogenous mp53^S241F, compared to ES2 p53KO cells (Figure 3B).
Figure 3 Peptides binding to p53 and their effect on the expression of p53 target genes A. - Bar graph illustrating the effect of selected peptides on activation of mutp53 by measuring transactivation of p53 target genes as determined by qRT-PCR. H1299 cells stably transfected with mutp53 (ts) A135V were used. The indicated peptides were added directly to the medium at a concentration of 5ug/ml and cells were then either moved to 32°C or returned to 37°C. 18 hours later cells were harvested, extracted for RNA, cDNA was synthesis subjected to qrt time PCR analysis. The expression level of 3 representative p53 target genes, p21, PUMA and Mdm2, were examined. The figure illustrates the relative fold induction of transcription of the cells treated with the selected peptides as compared to non-treated cells. B. - Bar graph illustrating the effect of selected peptides on activation of mutp53 by measuring transactivation of p53 target genes as determined by qRT-PCR. ES2and ES2-p53KO cells were treated with indicated peptides 5ug/ml, for 18 hours. Cells were harvested, and cDNA was subjected to qRT-PCR analysis. Expression of 4 representative p53 target genes, p21, PUMA, Mdm2 and CD95, was examined. The figure illustrates the relative fold induction of transcription in cells treated with the selected peptides compared to non-treated cells. C. - Binding of mutp53 to promoters of representative p53 target genes in live cells, assessed by chromatin immunoprecipitation. BT-549 breast cancer cells endogenously expressing mutant p53^R249S were treated for 5 hours with a mix of 3 pCAPs - 250, 242 and 325. Cells treated with a mix of inert peptides served as a negative control. DNA cross-linked p53 was immunoprecipitated, and binding to the p53 responsive elements of the PUMA, p21, CD95 and MDM2 gene promoters was quantified by qPCR. Results were normalized to input total DNA. Cell extracts immunoprecipitated with beads without antibody (beads) served as negative controls. A genomic segment containing no p53RE served as negative control (white and gray bars). D. - ELISA analysis of the binding of WTp53 and mutp53 to lead peptides. Peptides were conjugated to the bottoms of the wells of 96 well plates, employing a commercial conjugation kit (TAKARA). Control wells were coated with the αp53 monoclonal antibodies PAb1801, PAb1620 and PAb240. Recombinant WTp53 or mutp53R175H was added to the wells and incubated with the bound peptides or antibodies. Where indicated, soluble peptides were added as competitors (+ comp), to confirm the specificity of the binding to p53. pCAP-76 served as a negative control peptide. After removal of recombinant protein, plates were washed and incubated with αp53-HRP followed by TMB and optical density determination. Results are presented as relative absorbance at 450nm. […] See Materials and Methods for details.
Figure 4 Peptides trigger apoptosis in correlation to activation of WTp53 target genes A., C. - Apoptosis of ES2 cells treated with peptides. […]

[3] = system: mutp53; test: Summary score of peptide functional screens; details: overall score over conformation, DNA binding, viability and PCR screens
[4] = system: EP156; test: Crystal violet viability assay, EP156; format: cell-based; set-up: key: score 0- no effect-white; score 6- as or more effective than positive control- black; details: score 0-6 compared to positive control, 48 h
Source text: as §1, §2

Substance | Viability SK3 [1] | PCR ES2 [2] | SCORE [3] | Viability EP156 [4] | expression of the p53 target genes, ES2 [2]
EVTFRHSVV [pCAP-1, randomly selected peptide used as inert comparison] | 3 | 3 | 19 |  | 
HANLHHT [pCAP-87] |  | 2 | 32 | 4 | 
HHPWTHHQRWS [pCAP-20] | 3 | 4 | 19 |  | 
HSSHHHPVHSWN [pCAP-83] |  |  | 27 | 4 | 
IRGRIIR [pCAP-54] | 4 |  | 23 | 4 | significant increase
IRGRIIRRRRRRRRR [pCAP-54R, pCAP-54 with poly arginine tail] | 4 |  | 28 | 4 | 
IRILMFLIGCGR [pCAP-23] | 3 |  | 21 | 4 | 
IRILMFLIGCGRRRRRRRRR [pCAP-23R, pCAP-23 with poly arginine tail] | 3 |  | 24 | 4 | 
LHSKTLVL [pCAP-17] | 3 |  | 20 | 4 | 
LRCLLLLIGRVG [pCAP-24] |  |  | 23 | 4 | 
LRCLLLLIGRVGRRRRRRRR [pCAP-24R, pCAP-24 with poly arginine tail] | 2 | 4 | 34 | 4 | significant increase
SFILFIRRGRLG [pCAP-60] | 3 |  | 26 | 4 | 
SFILFIRRGRLGRRRRRRRRR [pCAP-60R, pCAP-60 with poly arginine tail] | 5 |  | 32 | 2 | significant increase
WNHHHSTPHPAH [pCAP-97] |  | 5 | 39 | 3 | 
WNHHHSTPHPAHRRRRRR [pCAP-97R, pCAP-97 with poly arginine tail] | 3 | 5 | 46 | 4 | significant increase
YPTQGHLR [pCAP-36] |  |  | 32 | 4 | 
YRRLLIGMMWRRRRRRRRR [pCAP-68] |  | 3 | 37 | 3 | 
myr-PRVLPSPHTIHPSQYP [pCAP-229, myristoylated peptide, similarity to HIPK2] | 3 | 3 | 35 | 3 | 
myr-RRIRDPRILLLHFD [pCAP-325] | 3 |  | 53 | 4 | 
myr-RRKHNKHRPEPDSDER [pCAP-221] | 5 | 4 | 58 | 5 | 
myr-RRKILFIRLMHNKH [pCAP-227, myristoylated peptide, similarity to GAS2] | 6 | 5 | 56 | 4 | 
myr-RRLIVRILKLPNPPER [pCAP-242] | 5 | 4 | 55 | 6 | 
